Assay [1] relates to differentiating rat oligodendrocyte precursor cells (drOPCs). In words: FDA/PI (fluorescein-diacetate/propidium iodide) live/dead cell viability assay, IFN-γ challenge. Format: cell-based. The text has this: Interferon-γ is an inflammatory cytokine that is thought to contribute to multiple sclerosis exacerbations, therefore, treatment of cultured cells of the oligodendrocyte lineage with interferon-γ provides a useful cellular model of MS-related inflammation. drOPCs were isolated and purified to >95% homogeneity from 6-7 day old Sprague-Dawley rat cortices by immunopanning as previously described (Chan et al. 2004 Neuron 43:2; 183-191). Briefly, rat cortices were extracted, diced, and digested with papain at 37° C. Cells were then triturated and resuspended in panning buffer containing insulin, then sequentially immunopanned at room temperature on three plates containing Ran-2, GalC, and O4 antibodies from hybridomal supernatant. The remaining O4^+GalC^− OPCs were removed from the plates with trypsin, resuspended in growth media, and seeded at 37° C. onto pDL-coated flasks to facilitate proliferation. Once sufficient numbers were reached, OPCs were split, plated in differentiation media at 200,000 cells/well, and allowed to differentiate for 24 hours. […] Following 48 hours of treatment, media was removed and the cells were incubated in FDA/PI (fluorescein-diacetate/propidium iodide) for 3 minutes, rinsed with 1×PBS, and imaged for live/dead cell quantification. In living cells, non-fluorescent FDA is converted into fluorescein, giving off a bright green fluorescence. PI is membrane impermeable and therefore excluded from live cells. Therefore, green cells indicate viable cells and red cells indicate non-viable cells. […] Treatment with 200 U/ml IFN-γ alone reduced the number of green cells and increased the number of red cells (C). […] FIG. 2B illustrates the quantitation of the experiment in FIG. 2a. […] Treatment with IFN-γ alone caused a roughly 40-50% decrease in cell survival. […] Data is presented as the mean+/−SEM for an N=3/group. (*p<0.05, **p<0.005)

The test system is the same in assay [2]. In words: TUNEL assay for IFN-γ induced apoptosis. Format: cell-based. As to the method:
Cells were isolated as described previously and plated in chamber slides at 20,000 cells/chamber. Cells were then treated with the same IFN-γ and guanabenz protocol as described previously, then subjected to a TUNEL assay. […] FIG. 3B illustrates the quantitation of the experiment in FIG. 3a. […] Error bars represent mean±SEM for an N=3/group (*p<0.05, **p<0.005, ***p<0.0005)

In assay [3] the test system is cultured rat cerebellar slices. In words: Myelin basic protein and toluidine blue staining of ex vivo cultured cerebellar slices treated with IFN-γ. The class given is cell-based. Conditions: seven days. The method, then:
Briefly, cerebellar sections were prepared from 6 day old Sprague-Dawley rat pups. […] Two to three sections were collected per well and grown in growth media with Fungizone. […] Sections were then stained for myelin-basic protein (A-E) and toluidine blue (F-H), used to visualize myelin and neuronal cytoarchitecture.

Assay [4] has as its system C57BL/6J mice with experimental autoimmune encephalitis (EAE). In words: Chronic EAE (MOG35-55), clinical scores and symptom onset. The class given is in vivo, mouse.
Assay [5] deals with SJL mice with remitting/relapsing EAE. Kind of assay: Remitting/relapsing EAE (PLP139-151), clinical scores. Format: in vivo, mouse.
Assay [6] concerns C57BL/6J mice with chronic EAE. In words: Guanabenz/interferon co-administration in chronic EAE, onset of clinical symptoms. The class given is in vivo, mouse. The following applies: for onset of clinical symptoms: daily from post immunization day 7. The text has this: Eight week old C57BL/6J female mice were immunized with MOG35-55/CFA to induce chronic EAE. […] Mice were scored daily for clinical symptoms (0=healthy, 1=flaccid tail, 2=ataxia and/or paresis of hindlimbs, 3=paralysis of hindlimbs and/or paresis of forelimbs, 4=tetraparalysis, 5=moribund or death). […] Onset of clinical symptoms began at approximately day 12 in saline-treated mice and at approximately day 13 in mice treated with interferon alone. […] While preferred embodiments of the present invention have been shown and described herein, it will be obvious to those skilled in the art that such embodiments are provided by way of example only. Numerous variations, changes, and substitutions will now occur to those skilled in the art without departing from the invention. It should be understood that various alternatives to the embodiments of the invention described herein may be employed in practicing the invention. It is intended that the following claims define the scope of the invention and that methods and structures within the scope of these claims and their equivalents be covered thereby.

Setting [7] is: 5.0 μM guanabenz co-treatment with IFN-γ.
[8] abbreviates: interferon-beta 5,000 U/day/mouse alone.

Regarding `N=C(N)N/N=C/c1c(Cl)cccc1Cl` [guanabenz], the “cell viability (green/red cells, FDA/PI)” value in assay [1] (1.25 μM guanabenz + 200 U/ml IFN-γ, 48 hours) is “partially restored viability”; in assay [1] (2.5 μM guanabenz + 200 U/ml IFN-γ, 48 hours) it was “partially restored viability”. For the same molecule, the “increase in cell survival compared to IFN-γ alone” value in assay [1] (1.25 μM guanabenz + IFN-γ) and in assay [1] (2.5 μM guanabenz + IFN-γ) was “roughly 25%” throughout. In assay [1] (5.0 μM guanabenz + IFN-γ), the “cell survival (FIG. 2B)” value is “increased survival almost to control levels”. Also, the “cell viability (green and red cells, FDA/PI)” value in assay [1] (5.0 μM guanabenz alone, no IFN-γ, 48 hours) was “does not impact cell viability”. Moreover, the “percent survival (FIG. 2B)” value in assay [1] (guanabenz alone vs untreated control) is on record as “comparable percent survival”. The “IFN-γ induced apoptosis (TUNEL, photomicrographs)” value in assay [2] (setting [7]) was “reduced IFN-γ induced apoptosis”. The “reduction of IFN-γ induced apoptosis compared to IFN-γ alone” value in assay [2] (setting [7]) is reported as “about 87.5%”. Besides, the “myelin fiber and axonal structure” value was “restored intact, long myelin fiber and axonal structure” in assay [3] (2.5 μM guanabenz + 100 U/ml IFN-γ); “restored intact, long myelin fiber and axonal structure” in assay [3] (5.0 μM guanabenz + 100 U/ml IFN-γ); “restored intact, long myelin fiber and axonal structure” in assay [3] (10.0 μM guanabenz + 100 U/ml IFN-γ). Besides, the “clinical score by days post symptom onset” value in assay [4] (4 mg/kg/day) and in assay [4] (16 mg/kg/day) was “Neither 4 mg/kg/day nor 16 mg/kg/day caused a significant reduction in clinical score” throughout. In addition, the average symptom onset in assay [4] (4 mg/kg/day IP from PID 7) is recorded as 19 days; in assay [4] (8 mg/kg/day IP from PID 7), “about 22 days”; in assay [4] (16 mg/kg/day IP from PID 7), “about 25 days”. For the same molecule, the “clinical score by days post symptom onset (symptom severity)” value in assay [4] (8 mg/kg/day) is “significantly reduced symptom severity”. For the same molecule, the “delay in symptom onset” value in assay [4] (all guanabenz doses (4-16 mg/kg/day), IP daily from PID 7) is “significant delay in symptom onset”. Further, the entries for the “average decrease in relapse severity” value in assay [5] (8 mg/kg IP daily from beginning of remission) and in assay [5] (16 mg/kg IP daily from onset of remission) were “about 50%” and “about 40%”, respectively. For the same molecule, in assay [5] (16 mg/kg/day IP), the “symptom severity during the remission phase, compared to vehicle” value was “greater decrease in symptom severity during the remission phase”. For the same molecule, in assay [6] (guanabenz 8 mg/kg alone), the “onset of clinical symptoms” value was around 18 days.

B1: IFN-γ: inflammatory cytokine used to challenge cultured oligodendrocyte lineage cells and cerebellar slices (protein, UniProt P01579 24-161, looked up)
Interferon gamma: QDPYVKEAENLKKYFNAGHSDVADNGTLFLGILKNWKEESDRKIMQSQIVSFYFKLFKNFKDDQSIQKSVETIKEDMNVKFFNSNKKKRDDFEKLTNYSVTDLNVQRKAIHELIQVMAELSPAAKTGKRKRSQMLFRG
As to B1, the “decrease in cell survival” value in assay [1] (IFN-γ alone, 200 U/ml, 48 hours) is recorded as 40-50%. Besides, the “increase in apoptosis compared to control cells” value in assay [2] (IFN-γ alone) is recorded as 2-3 fold.

B2: interferon-beta (protein, UniProt P01575 22-182, looked up)
Interferon beta: INYKQLQLQERTNIRKCQELLEQLNGKINLTYRADFKIPMEMTEKMQKSYTAFAIQEMLQNVFLVFRNNFSSTGWNETIVVRLLDELHQQTVFLKTVLEEKQEERLTWEMSSTALHLKSYYWRVQRYLKLMKYNSYAWMVVRAEIFRNFLIIRRLTRNFQN
On to B2, for which, in assay [6] (setting [8]), the “delay of onset of clinical symptoms” value is “did not significantly delay onset of clinical symptoms” and the “onset of clinical symptoms” value was around 13 days.
